Holding throughout (assay type): cell-based
In one test the test system is cPLA2. Briefly: cPLA2 activity assay in glutamate-treated neuron cultures from STEP KO mice. The note with it: STEP KO mice neurons; 50 μM glutamate 20 min; MK801 5 μM or SB 203580 5 μM; 2 h after the insult. As for the experimental part: (§1) Cell culture and stimulation: For cell culture studies adult WT male and female mice and STEP KO male and female mice were mated to generate timed pregnant female mice. The males were removed from the females after 24 h period, which was considered gestational day 1. Pregnancy was verified by the presence of vaginal plugs and/or weight gain. Primary neuronal cultures were obtained from 15-day-old mice embryos as described previously (Deep et al., 2019). Briefly, the striatum and the adjoining cortex was dissected, the tissue dissociated mechanically and resuspended in Dulbecco's modified Eagle's medium/F-12 (1:1) containing 5% fetal calf serum. […]
In FIG. 5A, neuron cultures from WT or STEP KO mice were treated with 50 μM glutamate (Glu) for 20 min and then maintained in its original medium for the specified time (2 h and 4 h). […] Cell lysates with equal amount of protein from each sample was analyzed for cPLA2 activity using enzymatic assay. Values are expressed as mean±SEM. *, indicates significant difference from untreated control in WT cultures (p<0.05); ^Δ, indicates significant difference from untreated control in STEP KO cultures (p<0.05); ^¶, significant difference from 20 min glutamate treatment in STEP KO cultures (p<0.05). […]

In another test the test system is IκB-α. Briefly: IκB degradation (NF-κB activation) by immunoblot in glutamate-treated neuron cultures from STEP KO mice. The following applies: STEP KO mice neurons; 50 μM glutamate; 2 h. Here is the method:
as §1
Earlier studies have shown that the nuclear factor kappa B (NF-κB) is a key regulator of COX2 expression in different cell types (Yamamoto et al., 1995; Kaltschmidt et al., 2002; Guo et al., 2013; Ackerman et al., 2008; Shi et al., 2015), and the ionotropic glutamate receptors is one of the activators of NF-κB in neurons (Kaltschmidt et al., 2005). To clarify the role of NF-κB in glutamate-NMDAR induced activation of the COX-2-PGE2 signaling pathway in STEP KO mice neurons, we next evaluated the effect of glutamate on IκB degradation, a seminal step in NF-κB activation (Karin and Ben-Neriah 2000; Rajagopal et al., 2019). […]
(In general: A western blot detects proteins with antibodies after separation by electrophoresis.)

In another test the test system is PGE2. The test is described as follows: PGE2 release into culture medium by ELISA, glutamate-treated neuron cultures from STEP KO mice. The note with it: STEP KO mice neurons; 50 μM glutamate; 2 h; MK801 5 μM, SB203580 5 μM, CAY10404 100 nM, Bengamide B 500 nM. Here is the method:
(§2) Cell culture and stimulation: For cell culture studies adult WT male and female mice and STEP KO male and female mice were mated to generate timed pregnant female mice. The males were removed from the females after 24 h period, which was considered gestational day 1. Pregnancy was verified by the presence of vaginal plugs and/or weight gain. Primary neuronal cultures were obtained from 15-day-old mice embryos as described previously (Deep et al., 2019). Briefly, the striatum and the adjoining cortex was dissected, the tissue dissociated mechanically and resuspended in Dulbecco's modified Eagle's medium/F-12 (1:1) containing 5% fetal calf serum. Cells (6×10^6 cells/dish) were plated on poly-D-lysine-coated tissue culture dishes (BD Biosciences) and grown for 12-14 days at 37° C. in a humidified atmosphere (95:5% air:CO2 mixture). For receptor stimulation cells were treated with glutamate or NMDA for the indicated times and then processed for immunoblot analysis. Glycine concentration in the medium during glutamate treatment was 10 μM. In some experiments, DL-2-amino-5-phosphonopentanoic acid (APV, 200 μM), MK-801 (5 μM), SB203580 (5 μM), CAY10404 (100 nM) or Bengamide B (500 nM) were added 5 min 10 min before addition of glutamate. Some cultures were treated with the TAT-STEP-myc peptide (4 μM) prior glutamate treatment.
For measurement of PGE2 and soluble CX3CL1 levels released from neurons, culture medium was collected from each experimental plate and centrifuged at 200 g for 5 min to remove cellular debris. […] PGE2 level was assessed using the PGE2 enzyme-linked immunosorbent assay (ELISA) kit (Cat #: K051-H1) from Arbor assays (Ann Arbor, Mich., USA), according to the manufacturer's instructions. Soluble CX3CL1 level was assessed using the ELISA kit (Cat #: MCX310) from R&D systems (Minneapolis, Minn., USA), according to the manufacturer's instructions.
To evaluate the effect of STEP gene deletion on glutamate-mediated PGE2 release in subsequent studies neuron cultures from WT or STEP KO mice were treated with 50 μM glutamate (Glu) for 20 min and then maintained in its original medium for the specified times (post-glutamate time: 2 h and 4 h). […] Equal amount of culture medium from each sample was analyzed for PGE2 levels using ELISA. Values are expressed as mean±SEM. *, indicates significant difference from untreated control in STEP KO cultures (p<0.05); ^¶, indicates significant difference from glutamate treated STEP KO cultures (p<0.05). […]
FIGS. 9A-9D show the role of NFκB activation in glutamate induced COX2 expression and PGE2 release. […] Quantification of IκB-α and COX-2 are represented as mean±SEM. *, indicates significant difference from untreated control in STEP KO culture (p<0.05); ^¶, indicates significant difference from glutamate treated STEP KO culture. […]
Background: An ELISA detects its analyte on a solid surface through an enzyme-linked reagent.

In a further test the test system is COX2. Briefly: COX2 protein level by immunoblot in glutamate-treated neuron cultures from STEP KO mice. The following applies: STEP KO mice neurons; 50 μM glutamate 20 min; post-glutamate time 2 h; MK801 5 μM, SB203580 5 μM, Bengamide B 500 nM, TAT-STEP-myc 4 μM. As for the experimental part:
as §2, with “In some experiments, DL-2-amino-5-phosphonopentanoic acid (APV, 200 μM), MK-801 (5 μM), SB203580 (5 μM), CAY10404 (100 nM) or Bengamide B (500 nM) were added 5 min 10 min before addition of glutamate. Some cultures were treated with the TAT-STEP-myc peptide (4 μM) prior glutamate treatment.” left out
In a parallel series of experiments, we further evaluated the expression of COX2, which is involved in the conversion of AA to prostanoids. […] Cell lysates with equal amount of protein from each sample was analyzed by immunoblotting with anti-COX2 (upper panel) or anti-β-tubulin (lower panel) antibodies. Quantification of COX2 is represented as mean±SEM. *, indicates significant difference from untreated control in STEP KO cultures (p<0.05); ^¶, indicates significant difference from glutamate treated STEP KO cultures (p<0.05).
FIGS. 9A-9D show the role of NFκB activation in glutamate induced COX2 expression and PGE2 release. […] (FIG. 9A-C) Cell lysates with equal amount of protein from each sample was analyzed by immunoblotting with (FIG. 9A, B) anti-IκB-α (upper panel) and anti-β-tubulin (lower panel) antibodies, or (C) anti-COX-2 (upper panel) and anti-β-tubulin (lower panel) antibodies. […] (FIG. 9D) Equal amount of culture medium from each sample was analyzed for PGE2 levels using ELISA. […]

As to `C[S+]([O-])c1ccc(-c2nc(-c3ccncc3)c(-c3ccc(F)cc3)[nH]2)cc1` (centres unmarked) [SB 203580, SB203580], the cPLA2 activity entry in the test on cPLA2 is on record as “significantly reduced”. The “glutamate-induced IκB degradation” value in the test on IκB-α is on record as “effectively blocked”. Further, the “glutamate-induced PGE2 release” value in the test with PGE2 is recorded as “significantly reduced”. In addition, the “glutamate-induced increase in COX2 level” value with COX2 is “attenuated”.

For the compound `C[C@]12N[C@H](Cc3ccccc31)c1ccccc12` [MK801, MK-801], the cPLA2 activity result in the test with cPLA2 is recorded as “significantly reduced”. The “glutamate-induced IκB degradation” value in the test with IκB-α is recorded as “effectively blocked”. Further, the “glutamate-induced PGE2 release” value with PGE2 is listed as “significantly reduced”. Besides, in the test with COX2, the “glutamate-induced increase in COX2 level” value is given as “attenuated”.

In the case of `CCCCCCCCCCCCCC(=O)O[C@H]1CC[C@H](NC(=O)[C@H](OC)[C@H](O)[C@@H](O)[C@H](O)/C=C/C(C)C)C(=O)N(C)C1` [Bengamide B], the “glutamate-induced PGE2 release” value in the test with PGE2 is “significant reduction”. Also, the “glutamate-induced increase in COX2 level” value with COX2 is on record as “attenuated”.

With `CS(=O)(=O)c1ccc(-c2noc(C(F)(F)F)c2-c2ccccc2)cc1` [CAY10404], in the test on PGE2, the “glutamate-induced PGE2 release” value was “significantly reduced”.

Source of the values: patent US20230130579A1, “REGULATION OF POST-ISCHEMIC INFLAMMATORY RESPONSE: A NOVEL FUNCTION OF TYROSINE PHOSPHATASE STEP” (UNM Rainforest Innovations, priority 2020, published 2023).
